{"source": "patent US9180118B2", "about": "“Thiadiazolidinone derivatives” (University of Rochester, priority 2006, dated 2015)", "key": {"[1]": {"system": "phospho-FLT3 in CD34+ AML cells", "test": "Phospho-FLT3 flow cytometry, CD34+ population of primary AML", "format": "cell-based, human", "details": "30 minutes after addition of drug"}, "[2]": {"system": "normal specimens (BM or CB)", "test": "Membrane integrity by YoPro-1 uptake, normal specimens", "format": "cell-based, human", "details": "20 μM TDZD-8 for 15 min", "experimental": "C. […] Cells were then washed with PBS and stained to assess membrane permeability using annexin V-Allophycocyanin (APC) and the vital dyes: Yo-[…] (0.1 uM), Hoescht 33342 (2.5 ug/ml), and Propidium Iodide (0.5 ug/ml) (Molecular Probes)."}, "[3]": {"target": "PDGFRB (PDGFR beta) (Homo sapiens, UniProt P09619)", "sequence (P09619 33-1106)": "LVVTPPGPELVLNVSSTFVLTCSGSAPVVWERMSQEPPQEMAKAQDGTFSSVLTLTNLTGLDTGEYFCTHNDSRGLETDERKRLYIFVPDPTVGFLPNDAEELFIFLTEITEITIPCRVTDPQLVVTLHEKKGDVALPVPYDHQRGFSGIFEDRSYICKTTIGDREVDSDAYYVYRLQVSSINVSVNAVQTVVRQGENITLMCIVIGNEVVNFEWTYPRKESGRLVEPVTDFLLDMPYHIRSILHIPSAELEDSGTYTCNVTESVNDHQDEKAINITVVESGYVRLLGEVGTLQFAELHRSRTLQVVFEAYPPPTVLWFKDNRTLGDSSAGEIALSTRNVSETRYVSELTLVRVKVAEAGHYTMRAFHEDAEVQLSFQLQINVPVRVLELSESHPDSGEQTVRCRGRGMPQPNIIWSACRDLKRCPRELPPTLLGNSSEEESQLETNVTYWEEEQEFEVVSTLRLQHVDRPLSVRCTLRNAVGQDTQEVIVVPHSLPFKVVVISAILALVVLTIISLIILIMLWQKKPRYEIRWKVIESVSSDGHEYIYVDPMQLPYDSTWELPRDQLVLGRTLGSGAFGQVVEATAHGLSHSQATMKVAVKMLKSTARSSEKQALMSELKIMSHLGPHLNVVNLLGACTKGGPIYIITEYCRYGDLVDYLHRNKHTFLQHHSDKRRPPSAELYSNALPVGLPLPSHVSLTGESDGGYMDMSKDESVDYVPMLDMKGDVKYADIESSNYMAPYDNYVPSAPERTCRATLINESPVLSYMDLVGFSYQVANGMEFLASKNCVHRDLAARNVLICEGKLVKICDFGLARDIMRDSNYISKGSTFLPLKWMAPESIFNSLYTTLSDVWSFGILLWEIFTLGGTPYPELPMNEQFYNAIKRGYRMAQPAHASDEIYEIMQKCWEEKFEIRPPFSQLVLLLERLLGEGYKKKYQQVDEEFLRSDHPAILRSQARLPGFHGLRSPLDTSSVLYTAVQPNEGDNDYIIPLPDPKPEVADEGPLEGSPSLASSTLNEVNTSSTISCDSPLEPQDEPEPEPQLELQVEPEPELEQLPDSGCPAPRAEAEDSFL", "test": "Kinase assay", "format": "biochemical", "experimental": "(§1) Kinase Assays: Single point and titration assays are performed using protocols (or essentially using protocols) know in the art for kinase activity profiling against a battery of kinase targets, including, for example, those specifically delineated herein. Such assays include, for example, those available from commercial sources, contract research laboratories, and the like."}, "[4]": {"target": "SRC (Homo sapiens, UniProt P12931)", "sequence (P12931 whole entry, species assumed)": "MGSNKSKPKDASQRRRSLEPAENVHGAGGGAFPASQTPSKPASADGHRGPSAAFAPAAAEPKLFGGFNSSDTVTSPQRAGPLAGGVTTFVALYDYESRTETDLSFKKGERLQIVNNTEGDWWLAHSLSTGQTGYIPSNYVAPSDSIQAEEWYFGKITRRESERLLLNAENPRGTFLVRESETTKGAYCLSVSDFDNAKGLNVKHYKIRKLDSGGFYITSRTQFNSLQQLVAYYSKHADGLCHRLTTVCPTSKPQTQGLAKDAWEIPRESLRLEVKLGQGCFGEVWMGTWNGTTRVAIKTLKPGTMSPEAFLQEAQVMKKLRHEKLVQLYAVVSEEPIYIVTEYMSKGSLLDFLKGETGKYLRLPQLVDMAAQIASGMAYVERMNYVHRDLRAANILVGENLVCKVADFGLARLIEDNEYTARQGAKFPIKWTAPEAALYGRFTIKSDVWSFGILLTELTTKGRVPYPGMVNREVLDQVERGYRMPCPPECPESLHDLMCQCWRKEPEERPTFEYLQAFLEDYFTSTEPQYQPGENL", "test": "Kinase assay", "format": "biochemical", "experimental": "as §1"}, "[5]": {"target": "PRKCE (PKC epsilon) (Homo sapiens, UniProt Q02156)", "test": "Kinase assay", "format": "biochemical", "experimental": "as §1"}, "[6]": {"target": "MAP2K1 (MEK1) (Homo sapiens, UniProt Q02750)", "test": "Kinase assay", "format": "biochemical", "experimental": "as §1"}, "[7]": {"target": "CSNK1G2 (CK1 gamma 2) (Homo sapiens, UniProt P78368)", "test": "Kinase assay", "format": "biochemical", "experimental": "as §1"}, "[8]": {"target": "BTK (Homo sapiens, UniProt Q06187)", "test": "Kinase assay", "format": "biochemical", "experimental": "as §1"}, "[9]": {"target": "PRKCH (PKC eta) (Homo sapiens, UniProt P24723)", "test": "Kinase assay", "format": "biochemical", "experimental": "as §1"}, "[10]": {"target": "PRKD1 (PKC mu) (Homo sapiens, UniProt Q15139)", "test": "Kinase assay", "format": "biochemical", "experimental": "as §1"}, "[11]": {"target": "DYRK3 (Homo sapiens, UniProt O43781)", "test": "Kinase assay", "format": "biochemical", "experimental": "as §1"}, "[12]": {"target": "Jak2 (Homo sapiens, UniProt O60674)", "test": "Kinase assay", "format": "biochemical", "details": "TDZD-8 20 μM", "experimental": "as §1"}, "[13]": {"target": "PRKCA (PKC alpha) (Homo sapiens, UniProt P17252)", "test": "Kinase assay", "format": "biochemical", "experimental": "as §1"}, "[14]": {"system": "primary AML specimens", "test": "Viability of primary AML specimens, Annexin V/7-AAD flow cytometry", "format": "cell-based, human", "experimental": "The cells were isolated and processed as described. […] All drug treatments were performed in triplicate. […] Total viable cell numbers were determined using a flow cytometric apoptosis assay as described. Briefly, after 18 h of treatment, specimens were labeled with anti-CD34-PE (Becton Dickinson, San Jose, Calif.) for 20 minutes. […] The total number of events collected was 100,000. The percent viable cells was defined as AnnexinV^neg/7-AAD^neg cells on total (ungated) cells and on gates set for CD34^+ populations. • [1] Jordan, C. T., et al., The interleukin-3 receptor alpha chain is a unique marker for human acute myelogenous leukemia stem cells. Leukemia, 2000. 14(10): p. […] Lansdorp, P. M. and W. Dragowska, Long-term erythropoiesis from constant numbers of CD34+ cells in serum-free cultures initiated with highly purified progenitor cells from human bone marrow. […] Guzman, M. L., et al., Nuclear factor-kappaB is constitutively activated in primitive human acute myelogenous leukemia cells. […] 98(8): p."}, "[15]": {"target": "PRKCB1 (PKC beta I) (Homo sapiens, UniProt P05771)", "sequence (P05771 whole entry)": "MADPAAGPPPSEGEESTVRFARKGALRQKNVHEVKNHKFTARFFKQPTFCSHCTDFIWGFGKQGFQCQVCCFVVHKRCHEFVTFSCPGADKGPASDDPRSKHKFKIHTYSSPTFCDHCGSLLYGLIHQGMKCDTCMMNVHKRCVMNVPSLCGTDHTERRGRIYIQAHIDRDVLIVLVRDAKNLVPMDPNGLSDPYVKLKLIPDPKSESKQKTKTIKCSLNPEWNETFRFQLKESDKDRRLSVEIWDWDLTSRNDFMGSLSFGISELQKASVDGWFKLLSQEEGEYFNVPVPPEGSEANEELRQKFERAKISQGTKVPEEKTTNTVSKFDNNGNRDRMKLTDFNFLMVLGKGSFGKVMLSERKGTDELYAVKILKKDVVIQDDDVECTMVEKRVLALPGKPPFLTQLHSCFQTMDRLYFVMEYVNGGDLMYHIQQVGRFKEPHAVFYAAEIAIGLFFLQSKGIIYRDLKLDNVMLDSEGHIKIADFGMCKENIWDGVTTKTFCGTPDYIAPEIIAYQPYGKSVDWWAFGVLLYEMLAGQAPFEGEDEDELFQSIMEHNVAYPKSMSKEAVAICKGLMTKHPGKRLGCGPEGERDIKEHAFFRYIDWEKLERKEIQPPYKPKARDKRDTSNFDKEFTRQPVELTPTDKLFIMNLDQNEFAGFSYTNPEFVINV", "test": "Kinase assay (single point and titration)", "format": "biochemical", "experimental": "as §1"}, "[16]": {"target": "FLT3 (Homo sapiens, UniProt P36888)", "sequence (P36888 27-993)": "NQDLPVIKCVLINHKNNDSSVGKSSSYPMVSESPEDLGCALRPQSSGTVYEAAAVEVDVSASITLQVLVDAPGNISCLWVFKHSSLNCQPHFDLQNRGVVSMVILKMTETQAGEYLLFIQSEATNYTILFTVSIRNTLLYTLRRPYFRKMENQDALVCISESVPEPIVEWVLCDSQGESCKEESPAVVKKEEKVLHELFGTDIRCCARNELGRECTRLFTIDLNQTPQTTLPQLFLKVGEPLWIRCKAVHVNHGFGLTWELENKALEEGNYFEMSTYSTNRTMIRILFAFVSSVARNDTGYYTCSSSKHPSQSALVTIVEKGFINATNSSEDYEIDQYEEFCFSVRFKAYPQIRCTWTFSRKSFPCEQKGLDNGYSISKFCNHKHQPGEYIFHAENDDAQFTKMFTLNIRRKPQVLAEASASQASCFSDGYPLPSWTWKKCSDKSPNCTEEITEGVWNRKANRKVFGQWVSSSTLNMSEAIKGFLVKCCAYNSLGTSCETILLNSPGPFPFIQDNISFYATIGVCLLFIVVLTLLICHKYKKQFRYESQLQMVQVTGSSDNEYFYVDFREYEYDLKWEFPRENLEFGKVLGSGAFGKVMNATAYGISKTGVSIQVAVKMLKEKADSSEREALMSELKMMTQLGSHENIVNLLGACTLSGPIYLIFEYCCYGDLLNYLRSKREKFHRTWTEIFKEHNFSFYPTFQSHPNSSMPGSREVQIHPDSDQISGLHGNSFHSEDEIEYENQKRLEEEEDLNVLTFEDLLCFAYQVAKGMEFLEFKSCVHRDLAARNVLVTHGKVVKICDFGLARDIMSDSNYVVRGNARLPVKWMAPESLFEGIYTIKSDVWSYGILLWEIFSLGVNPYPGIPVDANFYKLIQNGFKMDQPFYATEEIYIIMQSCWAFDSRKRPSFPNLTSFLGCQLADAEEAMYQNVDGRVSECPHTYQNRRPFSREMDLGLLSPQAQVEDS", "test": "Kinase assay (single point and titration)", "format": "biochemical", "experimental": "as §1"}, "[17]": {"target": "PRKCD (PKC delta) (Homo sapiens, UniProt Q05655)", "sequence (Q05655 whole entry)": "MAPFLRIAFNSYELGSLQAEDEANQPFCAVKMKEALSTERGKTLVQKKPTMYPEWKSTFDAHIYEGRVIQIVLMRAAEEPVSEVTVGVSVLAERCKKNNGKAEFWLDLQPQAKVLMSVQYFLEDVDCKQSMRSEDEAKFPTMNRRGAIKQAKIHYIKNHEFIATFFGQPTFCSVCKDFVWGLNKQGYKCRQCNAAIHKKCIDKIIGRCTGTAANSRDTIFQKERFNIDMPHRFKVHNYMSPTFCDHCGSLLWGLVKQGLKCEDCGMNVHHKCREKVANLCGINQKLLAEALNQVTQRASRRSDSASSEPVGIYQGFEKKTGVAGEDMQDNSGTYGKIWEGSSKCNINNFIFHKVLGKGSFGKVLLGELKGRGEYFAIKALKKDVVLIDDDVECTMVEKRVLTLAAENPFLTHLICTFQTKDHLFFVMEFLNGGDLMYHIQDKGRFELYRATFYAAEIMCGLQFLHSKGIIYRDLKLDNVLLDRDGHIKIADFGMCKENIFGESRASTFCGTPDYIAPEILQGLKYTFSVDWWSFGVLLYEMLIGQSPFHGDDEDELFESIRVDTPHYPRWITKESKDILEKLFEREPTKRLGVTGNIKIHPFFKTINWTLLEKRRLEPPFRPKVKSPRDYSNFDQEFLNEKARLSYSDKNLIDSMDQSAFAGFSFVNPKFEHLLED", "test": "Kinase assay (single point and titration)", "format": "biochemical", "experimental": "as §1"}, "[18]": {"target": "PRKCI (PKC iota) (Homo sapiens, UniProt P41743)", "sequence (P41743 whole entry)": "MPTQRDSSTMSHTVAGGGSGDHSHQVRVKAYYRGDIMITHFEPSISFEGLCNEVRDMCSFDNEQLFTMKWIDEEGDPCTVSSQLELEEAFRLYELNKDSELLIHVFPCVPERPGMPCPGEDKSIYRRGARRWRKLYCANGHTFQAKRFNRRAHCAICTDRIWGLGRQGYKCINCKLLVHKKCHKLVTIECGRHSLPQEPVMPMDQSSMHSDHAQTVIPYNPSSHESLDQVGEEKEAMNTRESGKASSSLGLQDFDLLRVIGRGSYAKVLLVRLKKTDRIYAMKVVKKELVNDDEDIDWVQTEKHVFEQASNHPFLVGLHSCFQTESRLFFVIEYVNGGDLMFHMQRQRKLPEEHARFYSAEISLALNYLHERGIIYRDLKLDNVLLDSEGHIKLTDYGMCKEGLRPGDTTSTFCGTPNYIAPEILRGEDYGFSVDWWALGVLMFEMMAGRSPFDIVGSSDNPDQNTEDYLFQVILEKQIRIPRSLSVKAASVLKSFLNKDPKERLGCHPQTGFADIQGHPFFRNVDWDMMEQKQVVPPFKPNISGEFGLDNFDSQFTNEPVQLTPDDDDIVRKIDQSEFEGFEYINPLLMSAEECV", "test": "Kinase assay (single point and titration)", "format": "biochemical", "experimental": "as §1"}, "[19]": {"format": "cell-based", "details": "human, CD34+CD38− cells gated from healthy (normal) specimens"}, "[20]": {"target": "GSK3B (GSK3 beta) (Homo sapiens, UniProt P49841)", "sequence (P49841 whole entry)": "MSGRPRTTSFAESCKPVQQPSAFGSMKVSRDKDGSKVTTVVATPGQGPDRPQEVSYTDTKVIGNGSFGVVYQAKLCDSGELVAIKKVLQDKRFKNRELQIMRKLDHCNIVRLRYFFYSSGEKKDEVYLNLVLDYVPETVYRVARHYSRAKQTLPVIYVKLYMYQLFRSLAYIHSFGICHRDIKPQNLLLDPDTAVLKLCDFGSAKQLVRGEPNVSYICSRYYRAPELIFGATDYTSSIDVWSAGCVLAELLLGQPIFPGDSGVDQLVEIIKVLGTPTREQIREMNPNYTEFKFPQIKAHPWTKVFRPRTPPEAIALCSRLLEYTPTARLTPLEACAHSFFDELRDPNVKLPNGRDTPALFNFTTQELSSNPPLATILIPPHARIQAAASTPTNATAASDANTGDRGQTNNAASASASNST", "test": "Kinase assay (single point and titration)", "format": "biochemical", "details": "TDZD-8 20 μM"}, "[21]": {"system": "normal specimens", "test": "Free thiol analysis by mBBr labeling, normal specimens", "format": "cell-based, human", "details": "20 μM TDZD-8", "experimental": "C. […] Intracellular thiol levels were assessed by flow cytometry after labeling with 50 μM monobromobimane (molecular probes)."}, "[22]": {"system": "normal progenitor cells", "test": "Methylcellulose colony assay, normal specimens", "format": "cell-based, human", "details": "20 μM TDZD-8, 18 hours before plating, n=12", "experimental": "(§2) Cells were then plated at 50,000 cells/ml in Methocult™ GF H4534 (1% methylcellulose in IMDM, 30% FBS, 1% BSA, 10^−4M 2-mercaptoethanol, 2 mM L-glutamine, 50 ng/ml rh stem cell factor, 10 ng/ml rh GM-CSF, 10 ng/ml rh IL-3-Stem Cell Technologies, Vancouver, B.C.) supplemented with 3 units/ml of erythropoietin and 50 ng/ml G-CSF (R&D Systems, Minneapolis, Minn.). Colonies were scored after 10-14 days of culture."}, "[23]": {"target": "CK-II (Homo sapiens, UniProt P68400)", "details": "reported; cited from earlier work"}, "[24]": {"system": "bcCML progenitor cells", "test": "Methylcellulose colony assay, bcCML", "format": "cell-based, human", "details": "20 μM TDZD-8, 18 hours before plating, n=3", "experimental": "as §2"}, "[25]": {"target": "PICA (Homo sapiens, UniProt P17612)", "details": "reported; cited from earlier work"}, "[26]": {"details": "titration, read-out: in vitro IC50"}}, "note": "Where “and” joins values, the source holds several entries; their conditions need not be identical. Equal values may be shown once."}
{"smiles": "Cn1sc(=O)n(Cc2ccccc2)c1=O", "note": "[TDZD-8, 4-benzyl-2-methyl-1,2,4-thiadiazolidine-3,5-dione]", "values": [{"measurement": "inhibition of FLT3 phosphorylation", "setting": "[1]", "result": "~30% and 31%"}, {"measurement": "rapid uptake of YoPro-1", "setting": "[2]", "result": "not evident in normal specimens"}, {"measurement": "inhibition at 20 µM", "setting": "[3]", "result": -4, "unit": "%"}, {"measurement": "% Inhibition mean", "setting": "[3]; TDZD-8 20 μM", "result": "little to no inhibition"}, {"measurement": "inhibition at 20 µM", "setting": "[4]", "result": 27, "unit": "%"}, {"measurement": "% Inhibition mean", "setting": "[4]; TDZD-8 20 μM", "result": "little to no inhibition"}, {"measurement": "inhibition at 20 µM", "setting": "[5]", "result": 99, "unit": "%"}, {"measurement": "inhibition at 20 µM", "setting": "[6]", "result": 80, "unit": "%"}, {"measurement": "inhibition at 20 µM", "setting": "[7]", "result": 22, "unit": "%"}, {"measurement": "inhibition at 20 µM", "setting": "[8]", "result": 72, "unit": "%"}, {"measurement": "inhibition at 20 µM", "setting": "[9]", "result": 104, "unit": "%"}, {"measurement": "inhibition at 20 µM", "setting": "[10]", "result": 97, "unit": "%"}, {"measurement": "inhibition at 20 µM", "setting": "[11]", "result": 85, "unit": "%"}, {"measurement": "inhibition", "setting": "[12]", "result": "little to no inhibition"}, {"measurement": "inhibition at 20 µM", "setting": "[13]", "result": 102, "unit": "%"}, {"measurement": "viability at 20 µM", "setting": "[14]; Homo sapiens, 24 h, read-out: mean viability relative to untreated controls", "result": 15, "unit": "%"}, {"measurement": "treatment time that may also be effective", "setting": "[14]; additional preliminary data, not shown", "result": "≤ 5", "unit": "min"}, {"measurement": "mean time to achieve ≧50% cell death", "setting": "[14]; bulk leukemia blast populations, 17 primary specimens", "result": 2, "unit": "h"}, {"measurement": "Rapid kinetics", "setting": "[14]; cell death kinetics", "result": "Yes"}, {"measurement": "time within which most toxicity is evident", "setting": "[14]; leukemia cells", "result": "1 to 6", "unit": "h"}, {"measurement": "Cytotoxic AML", "setting": "[14]; primary AML specimens", "result": "Yes"}, {"measurement": "time of TDZD-8 exposure at which cell death was frequently evident", "setting": "[14]; primary AML, bcCML, ALL and CLL specimens", "result": "≤ 2", "unit": "h"}, {"measurement": "viability", "setting": "[14]; three of 17 specimens, within 30 minutes", "result": "below 30%"}, {"measurement": "inhibition at 20 µM", "setting": "[15]", "result": 98, "unit": "%"}, {"measurement": "IC50", "setting": "[15]; [26]", "result": 1400, "unit": "nM"}, {"measurement": "inhibition at 20 µM", "setting": "[16]", "result": 99, "unit": "%"}, {"measurement": "IC50", "setting": "[16]; titration curve, FIG. 13C, read-out: in vitro IC50", "result": 673, "unit": "nM"}, {"measurement": "inhibition at 20 µM", "setting": "[17]", "result": 102, "unit": "%"}, {"measurement": "IC50", "setting": "[17]; [26]", "result": 1100, "unit": "nM"}, {"measurement": "inhibition at 20 µM", "setting": "[18]", "result": 100, "unit": "%"}, {"measurement": "IC50", "setting": "[18]; [26]", "result": 5.5, "unit": "µM"}, {"measurement": "viability at 24 h, 20 μM", "setting": "[19]", "result": 80.2, "unit": "%"}, {"measurement": "% Inhibition mean", "setting": "[20]", "result": 99, "unit": "%"}, {"measurement": "inhibition at 20 µM", "setting": "[20]", "result": 98, "unit": "%"}, {"measurement": "mBBr staining (free thiol groups)", "setting": "[21]", "result": "only slight changes in mBBr staining"}, {"measurement": "erythroid colonies, normalized to untreated controls", "setting": "[22]", "result": 94.79, "unit": "%"}, {"measurement": "myeloid colonies, normalized to untreated controls", "setting": "[22]", "result": 84.14, "unit": "%"}, {"measurement": "IC50", "setting": "[23]", "result": "> 100", "unit": "µM"}, {"measurement": "CFU, normalized to untreated controls", "setting": "[24]", "result": 16.1, "unit": "%"}, {"measurement": "IC50", "setting": "[25]", "result": "> 100", "unit": "µM"}]}
